According to EP0319316A2, “Griseolic acid monoesters, their preparation and use” (SANKYO COMPANY LIMITED, priority 1987, dated 1989):

Columns and labels:
[1] = system: Normal intraocular pressure; assay: Normal intraocular pressure lowering effect (Experiment 3); format: in vivo, male New Zealand white rabbits; settings: 2.0% sample solution, p < 0.05
Description: In the following Experiments 1 to 6, the test animals used were male New Zealand white rabbits, each weighing about 2.5 kg, raised in a room where the room temperature, relative humidity and lighting time were controlled to be 23° C, 60% and from 07:00 to 19:00, respectively. The animals were chosen from those where no abnormalities could be detected in their eyes by observation with the naked eye. They were given water freely but feed was restricted. The compound under test was dissolved in 100 mM of a sodium phosphate buffer solution (pH 7.2) containing a small amount of a 0.1 N aqueous solution of sodium hydroxide. In the case of timolol maleate, a 0.5% w/v eye lotion (Timoptol 0.5%, Santen Pharm. Co.) was used as such. The corneal surface was anesthetized by the application of oxybuprocain hydrochloride (Benoxil 0.4% solution, Santen Pharm. Co.), and the IOP was measured by means of an Alcon Applanation Pneumatograph (Japan Alcon) in rabbits. The measurements were carried out 2 or 3 times for each eye, and the mean value was calculated and is regarded as the value of IOP. After determination of the IOP, 25 µℓ of a sample solution was applied to one eye (test eye) three times every two minutes, and the same volume of the vehicle alone was applied to the other eye (control eye). The values of IOP of both eyes were measured with the passage of time. In this Experiment, the test compound was the compound of Example 19(b).

[2] = system: water load-induced elevation of intraocular pressure; assay: Effect on water load-induced elevation of intraocular pressure, water load test (Experiment 2); format: in vivo, male New Zealand white rabbits; settings: 2.0% sample solution
Description: In the following Experiments 1 to 6, the test animals used were male New Zealand white rabbits, each weighing about 2.5 kg, raised in a room where the room temperature, relative humidity and lighting time were controlled to be 23° C, 60% and from 07:00 to 19:00, respectively. The animals were chosen from those where no abnormalities could be detected in their eyes by observation with the naked eye. They were given water freely but feed was restricted. The compound under test was dissolved in 100 mM of a sodium phosphate buffer solution (pH 7.2) containing a small amount of a 0.1 N aqueous solution of sodium hydroxide. In the case of timolol maleate, a 0.5% w/v eye lotion (Timoptol 0.5%, Santen Pharm. Co.) was used as such. Each rabbit was anesthetized with urethane (1.0 g/kg, i.v.), and the IOP values of both eyes were measured. Immediately thereafter, 50 µℓ of the sample solution was applied to one eye (test eye). To the other eye (control eye), 50 µℓ of the vehicle alone was applied. Ninety minutes after this application, the values of IOP were measured and then the water load test was performed as follows. Sixty ml/kg of tap water was given compulsorily per os to the anesthetized rabbit, and then the values of IOP for both eyes were measured with the passage of time. In this Experiment, the test compound was the compound of Example 19(b), i.e. 9'-(4-acetoxybenzyl) griseolate.

Male F344 rats [3] = assay: Four-day toxicity in the rat (Experiment 8); format: in vivo
Description: Animals: Male F344 rats were used, each group consisting of 5 animals.
Drug preparation and administration: the compound of Example 19(b) was dissolved in distilled water and administered subcutaneously to the rats in a volume of 0.4 ml per 100 g of body weight at 09:00 for 4 days. Twenty-four hours after the final dose the rats were anesthetized with diethyl ether and their blood and organs were collected, weighed and used for pathological examination.

Male F344 rats [4] = assay: Acute toxicity in the rat (Experiment 7); format: in vivo; settings: single, observation one week
Description: Animals: Male F344 rats were used, each group consisting of 3 animals.
Drug preparation and administration: the compound of Example 19(b) was dissolved in distilled water and administered subcutaneously to the rats in a volume of 0.5 ml per 100 g of body weight. Observation of the rats was carried out over a period of one week.

eyes = assay: Eye irritation by the Draize method (Experiment 11); format: in vivo, male New Zealand white rabbit; settings: 2% by weight solution, 0.05 ml three times a day for seven days, right eye
Description: The irritation to the eyes caused by solutions of the compound of Example 19(b) was determined by the Draize method [J.H. Draize et af., J. Pharmacol. Exp. Ther., 82,377 (1944)] and evaluated by the method of Kay and Calandra [J.H. Kay and J.C. Calandra, J. Soc. Cosmet. Chem., 13, 281 (1962)].
The test solution employed was a simple solution of 2% by weight of the test compound in 100 mM of a sodium phosphate buffer (pH 7.2) for injections and adjusted to a pH value of from 7 to 8, as required.
A male New Zealand white rabbit of body weight about 2.5 kg was placed in a pillory to fix its head. 0.05 ml of the test solution was instilled into its right eye three times a day (at 09:00, 13:00 and 17:00) for seven days. The symptoms experienced by the anterior portion of the right eye were observed every day at 18:00 over a period of seven days, and the irritation observed was scored.

[5] = design: species or system Male albino rabbits; settings: rabbit, in vivo
Description: Animals: Male albino rabbits, each weighing about 2.5 kg, were used in a group of 5 animals.
Drug preparation and administration: the compound of Example 19(b) was dissolved in a 0.1 M sodium phosphate buffer (pH 7.2) and administered topically to one eye of the rabbit twice a day at […] and 16:00 for one week, although the administration at 16:00 on the final day was not carried out. The other group was left intact as a control. Four hours after the final administration at 09:00, blood was collected from the marginal ear vein of the rabbit in a syringe, and was centrifuged to obtain the serum.
Biochemical analysis of the serum: the rabbit serum was biochemically analyzed for trigly.ceride (TG), total cholesterol (T-CHO), alkaline phosphatase (ALP), total protein (TP), phospholipid (PL), urea nitrogen (UN), glucose (GLU), transaminase (GOT and GPT), albumin (ALB), total calcium (CA), inorganic phosphorus (IP), creatinine (CRE), and ratio of albumin to globulin (A/G). The analysis was carried out by using an autoanalyzer (HITACHI, Japan).

SMILES: CC(=O)Oc1ccc(COC(=O)C23C=C(C(O)C(=O)O)OC2C(O)C(n2cnc4c(N)ncnc42)O3)cc1 (stereo not drawn) [Example 19(b), 9'-(4-Acetoxybenzyl) griseolate]
- IOP of test eye ([1]; 25 µℓ three times every two minutes, one hour after application, control eye 20.7 ± 1.4): 19.5 ± 1.4 mmHg
- IOP of test eye ([1]; 2 hours after application, control eye 21.4): 19.3 ± 1.3 mmHg
- IOP of test eye ([1]; 5 hours after application, control eye 22.8 ± 0.5): 20.6 ± 0.7 mmHg
- IOP of test eye ([2]; 50 µℓ, 90 minutes after application, before water loading, control eye 17.1 ± 1.1): 16.8 ± 1.0 mmHg
- IOP of test eye ([2]; 0.5 hours after water loading (60 ml/kg per os), control eye 28.7 ± 1.8, p < 0.05): 25.6 ± 2.2 mmHg
- IOP of test eye ([2]; 1.0 hours after water loading, control eye 26.3 ± 2.4, p < 0.05): 22.6 ± 2.3 mmHg
- IOP of test eye ([2]; 1.5 hours after water loading, control eye 20.3 ± 1.6, p < 0.05): 17.5 ± 1.2 mmHg
- IOP of test eye ([2]; 2.0 hours after water loading, control eye 17.4 ± 1.5): 17.1 ± 1.1 mmHg
- IOP of test eye ([2]; 2.5 hours after water loading, control eye 17.4 ± 1.9, p < 0.05): 15.6 ± 1.5 mmHg
- death rate (Male F344 rats [3]; dose 6.25 mg/kg subcutaneously for 4 days): 0/5
- death rate (Male F344 rats [3]; dose 12.5 mg/kg subcutaneously for 4 days): 0/5
- death rate (Male F344 rats [3]; dose 25 mg/kg subcutaneously for 4 days): 0/5
- death rate (Male F344 rats [3]; dose 50 mg/kg subcutaneously for 4 days): 5/5
- death rate (Male F344 rats [4]; dose 25 mg/kg subcutaneously): 0/3
- death rate (Male F344 rats [4]; dose 50 mg/kg subcutaneously): 0/3
- death rate (Male F344 rats [4]; dose 100 mg/kg subcutaneously): 3/3
- irritation to the eyes (eyes): No significant stimulus was observed
- A/G [5]: 15.6 ± 2.5
- ALB [5]: 5.0 ± 0.1 g/dL
- ALP [5]: 379.0 ± 49.0 IU/ℓ
- CA [5]: 14.0 ± 0.2 mg/dL
- CRE [5]: 0.90 ± 0.05 mg/dL
- GLU [5]: 137.0 ± 3.0 mg/dL
- GOT [5]: 9.6 ± 1.5 IU/ℓ
- GPT [5]: 19.6 ± 3.9 IU/ℓ
- PL [5]: 91.8 ± 4.6 mg/dL
- T-CHO [5]: 45.0 ± 3.2 mg/dL
- TG [5]: 58.4 ± 5.4 mg/dL
- TP [5]: 5.3 ± 0.2 g/dL
- UN [5]: 17.9 ± 0.9 mg/dL
